The source of these data is patent US8017656B2, “Organic sulfur compounds and use thereof” (Sumitomo Chemical Company, Limited, priority 2005, dated 2011).

Type in all cases: in vivo
One experiment relates to Musca domestica. Kind of experiment: Test Example 2: filter paper/sucrose bait test against housefly imagoes. The note with it: read-out: rate of dead pests. The method, then:
On the bottom of a polyethylene cup having a diameter of 5.5 cm, a filter paper having the same diameter was laid, and 0.7 ml of the above test solution was added dropwise on the filter paper, followed by putting 30 mg of sucrose on it uniformly as a bait. Ten female Musca domestica imagoes were set free in the polyethylene cup and covered it with a lid. After 24 hours, the number of surviving and dead Musca domestica was examined and the rate of dead pests was calculated.

In another experiment the test system is Blattella germanica. Kind of experiment: Test Example 3: filter paper/sucrose bait test against German cockroach imagoes. The note with it: for pest or weed control at 500 ppm: Blattella germanica, 144 h, read-out: rate of dead pests. The method, then:
On the bottom of a polyethylene cup having a diameter of 5.5 cm, a filter paper having the same diameter was laid, and 0.7 ml of the above test solution was added dropwise on the filter paper, followed by putting 30 mg of sucrose on it uniformly as a bait. Two male Blattella germanica imagoes were set free in the polyethylene cup and covered it with a lid. After 6 days, the number of surviving and dead Blattella germanica was examined and the rate of dead pests was calculated.

A further experiment relates to Culex pipiens pallens. Kind of experiment: Test Example 4: mosquito larvae test in treated water. The note with it: 24 h, read-out: rate of dead pests. The method, then: 0.7 ml of above test solution was added to 100 ml of ion exchanged water (active ingredient concentration: 3.5 ppm). Twenty last-instar larvae of Culex pipiens pallens were set free in the solution. After one day, the number of surviving and dead Culex pipiens pallens was examined and the rate of dead pests was calculated.

Where [1] appears, read: 500 ppm test solution, 0.7 ml on filter paper with 30 mg sucrose, ten female imagoes, after 24 hours.
Setting [2] is: 500 ppm test solution, 0.7 ml on filter paper with 30 mg sucrose, two male imagoes, after 6 days.
Setting [3] is: active ingredient concentration 3.5 ppm in water, twenty last-instar larvae, after one day.

Where two headings read alike, the source gives them in different places. Bounds are passed on as bounds.

Regarding `N#CC(CCC(F)(F)F)S(=O)(=O)CCC(F)(F)F` (stereo not drawn) [(1)], the values for the pest or weed control at 500 ppm with Musca domestica (setting [1]) and with Blattella germanica (setting [2]) were at least 70% and 100%, respectively. Besides, the pest or weed control at 3.5 ppm with Culex pipiens pallens (setting [3]) was at least 90%.
Consider `N#CC(CC(F)(F)C(F)(F)F)S(=O)(=O)CCC(F)(F)F` (stereo not drawn) [(2)], for which the pest or weed control at 500 ppm in the experiment on Musca domestica (setting [1]) is at least 70%; in the experiment on Blattella germanica (setting [2]), 100%. Moreover, the pest or weed control at 3.5 ppm in the experiment with Culex pipiens pallens (setting [3]) is at least 90%.
As for `N#CC(CCC(F)(F)C(F)(F)F)S(=O)(=O)CCC(F)(F)F` (stereo not drawn) [(3)], the pest or weed control at 500 ppm is at least 70% in the experiment on Musca domestica (setting [1]) and 100% with Blattella germanica (setting [2]). The pest or weed control at 3.5 ppm in the experiment on Culex pipiens pallens (setting [3]) is at least 90%.
For the compound `N#CC(CC(F)(F)C(F)(F)C(F)(F)F)S(=O)(=O)CCC(F)(F)F` (stereo not drawn) [(4)], the pest or weed control at 500 ppm in the experiment on Musca domestica (24 h) was at least 70%; in the experiment on Blattella germanica, 100%. For the same compound, the pest or weed control at 3.5 ppm in the experiment on Culex pipiens pallens was at least 90%.
Consider `N#CC(CCC(F)(F)C(F)(F)C(F)(F)F)S(=O)(=O)CCC(F)(F)F` (stereo not drawn) [(5)], for which the pest or weed control at 500 ppm in the experiment on Musca domestica (24 h) was at least 70%; in the experiment with Blattella germanica, 100%. Moreover, the pest or weed control at 3.5 ppm in the experiment on Culex pipiens pallens was at least 90%.
As for `N#CC(CCC(F)(F)C(F)(F)C(F)(F)C(F)(F)F)S(=O)(=O)CCC(F)(F)F` (stereo not drawn) [(7)], the pest or weed control at 500 ppm with Blattella germanica came to 100%. Besides, in the experiment on Culex pipiens pallens, the pest or weed control at 3.5 ppm is at least 90%.
Turning to `N#CC(CCC(F)(F)C(F)(F)F)S(=O)(=O)CCC(F)(F)C(F)(F)F` (stereo not drawn) [(8)], the pest or weed control at 500 ppm is at least 70% in the experiment with Musca domestica (setting [1]) and 100% in the experiment with Blattella germanica (setting [2]). Further, in the experiment with Culex pipiens pallens (setting [3]), the pest or weed control at 3.5 ppm was at least 90%.
With `N#CC(CC(F)(F)C(F)(F)C(F)(F)F)S(=O)(=O)CCC(F)(F)C(F)(F)F` (stereo not drawn) [(9)], the pest or weed control at 500 ppm in the experiment with Musca domestica (24 h) is at least 70%; with Blattella germanica, 100%. Moreover, in the experiment with Culex pipiens pallens, the pest or weed control at 3.5 ppm was at least 90%.
Consider `N#CC(CCC(F)(F)C(F)(F)F)S(=O)(=O)CCC(F)(F)C(F)(F)C(F)(F)F` (stereo not drawn) [(10)], for which the pest or weed control at 500 ppm is at least 70% in the experiment on Musca domestica (24 h) and 100% in the experiment on Blattella germanica. Also, the pest or weed control at 3.5 ppm in the experiment on Culex pipiens pallens was at least 90%.
As to `CC(C#N)(CCC(F)(F)C(F)(F)F)S(=O)(=O)CCC(F)(F)F` (stereo not drawn) [(11)], the results for the pest or weed control at 500 ppm with Musca domestica (setting [1]) and in the experiment on Blattella germanica (setting [2]) were at least 70% and 100%, respectively. For the same compound, the pest or weed control at 3.5 ppm in the experiment on Culex pipiens pallens (setting [3]) is at least 90%.
Regarding `CC(C#N)(CC(F)(F)C(F)(F)C(F)(F)F)S(=O)(=O)CCC(F)(F)F` (stereo not drawn) [(12)], the pest or weed control at 500 ppm is at least 70% in the experiment with Musca domestica (24 h) and 100% with Blattella germanica. Moreover, the pest or weed control at 3.5 ppm with Culex pipiens pallens was at least 90%.
With `CC(C#N)(CCC(F)(F)C(F)(F)F)S(=O)(=O)CCC(F)(F)C(F)(F)F` (stereo not drawn) [(13)], the pest or weed control at 500 ppm was at least 70% in the experiment with Musca domestica (setting [1]) and 100% in the experiment with Blattella germanica (setting [2]). Also, the pest or weed control at 3.5 ppm in the experiment with Culex pipiens pallens (setting [3]) was at least 90%.
`CC(C#N)(CCC(F)(F)C(F)(F)F)S(=O)(=O)CCC(F)(F)C(F)(F)C(F)(F)F` (stereo not drawn) [(14)]: the pest or weed control at 500 ppm is at least 70% with Musca domestica (24 h) and 100% in the experiment on Blattella germanica. Besides, in the experiment with Culex pipiens pallens, the pest or weed control at 3.5 ppm is at least 90%.
Regarding `CCC(C#N)(CCC(F)(F)C(F)(F)F)S(=O)(=O)CCC(F)(F)F` (stereo not drawn) [(15)], the figures for the pest or weed control at 500 ppm with Musca domestica (setting [1]) and in the experiment with Blattella germanica (setting [2]) were at least 70% and 100%, respectively. Besides, in the experiment with Culex pipiens pallens (setting [3]), the pest or weed control at 3.5 ppm was at least 90%.
As to `CCCC(C#N)(CCC(F)(F)C(F)(F)F)S(=O)(=O)CCC(F)(F)F` (stereo not drawn) [(16)], the pest or weed control at 500 ppm in the experiment on Musca domestica (setting [1]) was at least 70%; in the experiment with Blattella germanica (setting [2]) it was 100%. Moreover, in the experiment on Culex pipiens pallens (setting [3]), the pest or weed control at 3.5 ppm is at least 90%.
For the compound `CC(C)C(C#N)(CCC(F)(F)C(F)(F)F)S(=O)(=O)CCC(F)(F)F` (stereo not drawn) [(17)], the pest or weed control at 500 ppm with Musca domestica (setting [1]) is at least 70%; in the experiment on Blattella germanica (setting [2]), 100%. For the same compound, the pest or weed control at 3.5 ppm in the experiment with Culex pipiens pallens (setting [3]) is at least 90%.
For `CCCCC(C#N)(CCC(F)(F)C(F)(F)F)S(=O)(=O)CCC(F)(F)F` (stereo not drawn) [(18)], in the experiment on Musca domestica (setting [1]), the pest or weed control at 500 ppm was at least 70%. In addition, in the experiment with Culex pipiens pallens (setting [3]), the pest or weed control at 3.5 ppm is at least 90%.
With `CCCCCC(C#N)(CCC(F)(F)C(F)(F)F)S(=O)(=O)CCC(F)(F)F` (stereo not drawn) [(19)], the pest or weed control at 500 ppm with Musca domestica (setting [1]) is at least 70%. For the same compound, the pest or weed control at 3.5 ppm in the experiment with Culex pipiens pallens (setting [3]) is at least 90%.
Consider `N#CC(F)(CCC(F)(F)C(F)(F)F)S(=O)(=O)CCC(F)(F)F` (stereo not drawn) [(20)], for which the figures for the pest or weed control at 500 ppm in the experiment with Musca domestica (setting [1]) and in the experiment with Blattella germanica (setting [2]) were at least 70% and 100%, respectively. The pest or weed control at 3.5 ppm with Culex pipiens pallens (setting [3]) is at least 90%.
On to `COC(=O)C(CCCC(F)(F)F)S(=O)(=O)CCC(F)(F)F` (stereo not drawn) [(22)], for which, in the experiment on Musca domestica (setting [1]), the pest or weed control at 500 ppm was at least 70%. The pest or weed control at 3.5 ppm in the experiment on Culex pipiens pallens (setting [3]) is at least 90%.
For `COC(=O)C(CCC(F)(F)C(F)(F)F)S(=O)(=O)CCC(F)(F)C(F)(F)F` (stereo not drawn) [(24)], in the experiment with Culex pipiens pallens (setting [3]), the pest or weed control at 3.5 ppm was at least 90%.
As for `CC(C)(C)OC(=O)C(CCC(F)(F)C(F)(F)F)S(=O)(=O)CCC(F)(F)F` (stereo not drawn) [(25)], in the experiment with Musca domestica (setting [1]), the pest or weed control at 500 ppm was at least 70%. In the experiment with Culex pipiens pallens (setting [3]), the pest or weed control at 3.5 ppm was at least 90%.
Consider `CCCC(CCC(F)(F)C(F)(F)F)(C(=O)OC)S(=O)(=O)CCC(F)(F)F` (stereo not drawn) [(28)], for which, in the experiment on Musca domestica (setting [1]), the pest or weed control at 500 ppm is at least 70%.
Regarding `COC(=O)C(CCC(F)(F)C(F)(F)F)S(=O)(=O)CCC(F)(F)C(F)(F)C(F)(F)F` (stereo not drawn) [(42)], the pest or weed control at 3.5 ppm in the experiment on Culex pipiens pallens is at least 90%.
As to `COC(=O)C(C)(CCC(F)(F)C(F)(F)F)S(=O)(=O)CCC(F)(F)C(F)(F)C(F)(F)F` (stereo not drawn) [(43)], the pest or weed control at 500 ppm in the experiment on Musca domestica (24 h) is at least 70%.
In the case of `COC(=O)C(C)(CCCC(F)(F)F)S(=O)(=O)CCC(F)(F)F` (stereo not drawn) [(44)], the pest or weed control at 500 ppm with Musca domestica (setting [1]) was at least 70%; in the experiment with Blattella germanica (setting [2]), 100%.
As for `N#CC(CCC(F)(F)C(F)(F)F)SCCC(F)(F)F` (stereo not drawn) [(47)], the “rate of dead pests” value in the experiment on Blattella germanica (setting [2]) was determined as 100%.
In the case of `COC(=O)C(CCC(F)(F)C(F)(F)C(F)(F)F)S(=O)(=O)CCC(F)(F)C(F)(F)F` (stereo not drawn) [(51)], the pest or weed control at 3.5 ppm with Culex pipiens pallens was at least 90%.
As for `NC(=O)C(CCC(F)(F)C(F)(F)C(F)(F)F)S(=O)(=O)CCC(F)(F)C(F)(F)F` (stereo not drawn) [(55)], the pest or weed control at 500 ppm was at least 70% in the experiment with Musca domestica (24 h) and 100% in the experiment with Blattella germanica.
Consider `NC(=O)C(F)(CCC(F)(F)C(F)(F)F)S(=O)(=O)CCC(F)(F)F` (stereo not drawn) [(64)], for which the pest or weed control at 500 ppm in the experiment with Musca domestica (setting [1]) was at least 70%; in the experiment with Blattella germanica (setting [2]), 100%.
On to `COC(=O)C(F)(CCC(F)(F)C(F)(F)F)S(=O)(=O)CCC(F)(F)C(F)(F)C(F)(F)F` (stereo not drawn) [(66)], for which the pest or weed control at 500 ppm in the experiment with Musca domestica (24 h) is at least 70%.
As for `COC(=O)C(CCC(F)(F)F)S(=O)(=O)CCC(F)(F)F` (stereo not drawn) [(76)], the pest or weed control at 3.5 ppm in the experiment on Culex pipiens pallens (setting [3]) is at least 90%.
As to `COC(=O)C(CCCC(F)(F)F)S(=O)(=O)CCC(F)(F)F` (stereo not drawn) [(78)], in the experiment on Blattella germanica (setting [2]), the pest or weed control at 500 ppm stood at 100%.
As to `COC(=O)C(CCC(F)(F)C(F)(F)C(F)(F)F)S(=O)(=O)CCC(F)(F)F` (stereo not drawn) [(82)], in the experiment with Musca domestica (24 h), the pest or weed control at 500 ppm is at least 70%. The pest or weed control at 3.5 ppm in the experiment with Culex pipiens pallens is at least 90%.
As for `COC(=O)C(Cl)(CCC(F)(F)C(F)(F)C(F)(F)F)S(=O)(=O)CCC(F)(F)F` (stereo not drawn) [(83)], the pest or weed control at 3.5 ppm in the experiment on Culex pipiens pallens was at least 90%.
On to `COC(=O)C(CCC(F)(F)F)S(=O)(=O)CCC(F)(F)C(F)(F)F` (stereo not drawn) [(92)], for which the pest or weed control at 3.5 ppm in the experiment with Culex pipiens pallens (setting [3]) was at least 90%.
As to `COC(=O)C(CCC(F)(F)C(F)(F)C(F)(F)F)S(=O)(=O)CCC(F)(F)C(F)(F)F` (stereo not drawn) [(95)], in the experiment on Musca domestica (24 h), the pest or weed control at 500 ppm is at least 70%.
As for `COC(=O)C(Cl)(CCCCC(F)(F)F)S(=O)(=O)CCC(F)(F)F` (stereo not drawn) [(99)], the pest or weed control at 500 ppm in the experiment on Musca domestica (setting [1]) was at least 70%.
Consider `COC(=O)C(CCCC(F)(F)C(F)(F)F)S(=O)(=O)CCC(F)(F)F` (stereo not drawn) [(101)], for which the pest or weed control at 500 ppm was at least 70% with Musca domestica (setting [1]) and 100% in the experiment on Blattella germanica (setting [2]).
